pIC50: −log10 of the molar value.
Each molecule was assayed against T1, VEGFR/KDR (Homo sapiens, UniProt P35968) (assay: VEGFR/KDR kinase inhibition, DELFIA assay). Details: ATP 0.6 uM (2x Km), enzyme 5 nM.
T1 construct: made in house; host or cells: Sf9 cells (Spodoptera frugiperda), baculovirus
Format: biochemical
Protocol: Inhibition of VEGFR/KDR is measured in a DELFIA™ assay (Perkin Elmer). The substrate poly(Glu4, Tyr) is immobilized onto black high-binding polystyrene 96-well plates. The coated plates are washed and stored at 4° C. During the assay, the enzyme is pre-incubated with inhibitor and Mg-ATP on ice in polypropylene 96-well plates for 4 minutes, and then transferred to the coated plates. The subsequent kinase reaction takes place at 30° C. for 10-30 minutes. ATP concentrations in the assay are 0.6 uM for VEGFR/KDR (2× the Km). Enzyme concentration is 5 nM. After incubation, the kinase reactions are quenched with EDTA and the plates are washed. Phosphorylated product is detected by incubation with Europium-labeled anti-phosphotyrosine MoAb. After washing the plates, bound MoAb is detected by time-resolved fluorescence in a Gemini SpectraMax reader (Molecular Devices). Compounds are evaluated over a range of concentrations, and IC50 values (concentration of compounds giving 50% inhibition of enzymatic activity) are determined.

T1 sequence (P35968 806-1356): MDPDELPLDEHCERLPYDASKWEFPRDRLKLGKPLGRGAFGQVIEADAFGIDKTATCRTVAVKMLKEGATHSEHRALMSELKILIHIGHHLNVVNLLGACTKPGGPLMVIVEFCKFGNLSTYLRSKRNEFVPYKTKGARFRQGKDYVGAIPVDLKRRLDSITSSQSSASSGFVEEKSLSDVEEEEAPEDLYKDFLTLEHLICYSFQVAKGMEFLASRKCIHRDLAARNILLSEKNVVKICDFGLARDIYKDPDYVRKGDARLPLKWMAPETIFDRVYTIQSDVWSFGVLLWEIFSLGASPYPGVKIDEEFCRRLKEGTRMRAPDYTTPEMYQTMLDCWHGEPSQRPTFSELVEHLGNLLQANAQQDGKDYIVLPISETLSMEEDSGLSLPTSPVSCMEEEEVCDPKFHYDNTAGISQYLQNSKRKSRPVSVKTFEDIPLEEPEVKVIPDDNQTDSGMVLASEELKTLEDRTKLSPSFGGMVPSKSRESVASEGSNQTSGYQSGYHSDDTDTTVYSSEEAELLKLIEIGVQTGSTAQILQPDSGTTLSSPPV

pIC50 | Compound
> 7.30 | COCCN(Cc1ccc(-c2cc3nccc(Oc4ccc(NC(=O)NC5CC5)cc4F)c3s2)nc1)C(=O)COC [Compound 85]
> 7.30 | O=C(Nc1ccc(Oc2ccnc3cc(C(=O)N4CC[C@H](O)C4)sc23)c(F)c1)NC1CC1 [Compound 461, (S)-1-cyclopropyl-3-(3-fluoro-4-(2-(3-hydroxypyrrolidine-1-carbonyl)thieno[3,2-b]pyridin-7-yloxy)phenyl)urea]
> 7.30 | CN(CC(=O)O)C1CCN(Cc2ccc(-c3cc4nccc(Oc5ccc(NC(=O)NC6CC6)cc5F)c4s3)nc2)CC1 [Compound 423, 2-((1-((6-(7-(4-(3-Cyclopropylureido)-2-fluorophenoxy)thieno[3,2-b]pyridin-2-yl)pyridin-3-yl)methyl)piperidin-4-yl)(methyl)amino)acetic acid]
> 7.30 | COCCN(Cc1ccc(-c2cc3nccc(Oc4ccc(NC(=O)NC5CC5)cc4F)c3s2)cc1)C(=O)CO [Compound 115-A, N-(4-(7-(4-(3-cyclopropylureido)-2-fluorophenoxy)thieno[3,2-b]pyridin-2-yl)benzyl)-2-hydroxy-N-(2-methoxyethyl)acetamide]
> 7.30 | O=C(Nc1ccc(Oc2ccnc3cc(-c4ccc(CN5C(=O)CCC5=O)cn4)sc23)c(F)c1)NC1CC1 [Compound 140, 1-cyclopropyl-3-(4-(2-(5-((2,5-dioxopyrrolidin-1-yl)methyl)pyridin-2-yl)thieno[3,2-b]pyridin-7-yloxy)-3-fluorophenyl)urea]
> 7.30 | COCCNCc1ccc(-c2cc3nccc(Oc4ccc(NC(CC(=O)Nc5ccccc5)C(F)(F)F)cc4F)c3s2)nc1 (stereo not shown) [Compound 19, 4,4,4-trifluoro-3-(3-fluoro-4-(2-(5-((2-methoxyethylamino)methyl)pyridin-2-yl)thieno[3,2-b]pyridin-7-yloxy)phenylamino)-N-phenylbutanamide]
> 7.30 | CCNC(=O)N(C)C1CCN(C(=O)c2ccc(-c3cc4nccc(Oc5ccc(NC(=O)NC6CC6)cc5F)c4s3)nc2)CC1 [Compound 406]
> 7.30 | COCCOCC(=O)N1CC=C(c2cc3nccc(Oc4ccc(NC(=O)NC5CC5)cc4F)c3s2)CC1 [Compound 274]
> 7.30 | CCNC(=O)N(C)C1CCN(Cc2ccc(-c3cc4nccc(Oc5ccc(NC(=O)NC6CC6)cc5F)c4s3)nc2)CC1 [Compound 407]
> 7.30 | O=C(CO)NC1CN(Cc2ccc(-c3cc4nccc(Oc5ccc(NC(=O)NC6CC6)cc5F)c4s3)nc2)C1 [Compound 414]
> 7.30 | O=C(Nc1ccc(Oc2ccnc3cc(-c4cn(CCCN5CCOCC5)nn4)sc23)c(F)c1)NC1CC1 [Compound 385]
> 7.30 | Cn1c(CN2CCOCC2)cnc1-c1cc2nccc(Oc3ccc(NC(=O)NC4CC4)cc3F)c2s1 [Compound 298]
> 7.30 | N[C@@H]1CCN(Cc2ccc(-c3cc4nccc(Oc5ccc(NC(=O)NC6CC6)cc5F)c4s3)nc2)C1=O [Compound 109, (R)-1-(4-(2-(5-((3-amino-2-oxopyrrolidin-1-yl)methyl)pyridin-2-yl)thieno[3,2-b]pyridin-7-yloxy)-3-fluorophenyl)-3-cyclopropylurea]
> 7.30 | CN(C)CCCc1ccc(NCc2ccc(-c3cc4nccc(Oc5ccc(NC(=O)NC6CC6)cc5F)c4s3)nc2)cc1 [Compound 339, 1-cyclopropyl-3-(4-(2-(5-((4-(3-(dimethylamino)propyl)phenylamino)methyl)pyridin-2-yl)thieno[3,2-b]pyridin-7-yloxy)-3-fluorophenyl)urea]
> 7.30 | CC(=O)N1CCN(Cc2ccc(-c3cc4nccc(Oc5ccc(NC(=O)NC6CC6)cc5F)c4s3)nc2)CC1 [Compound 66, 1-(4-(2-(5-((4-acetylpiperazin-1-yl)methyl)pyridin-2-yl)thieno[3,2-b]pyridin-7-yloxy)-3-fluorophenyl)-3-cyclopropylurea]
> 7.30 | CC(=O)N[C@@H]1CCN(C(=O)c2cc3nccc(Oc4ccc(NC(=O)NC5CC5)cc4F)c3s2)C1 [Compound 453]
> 7.30 | O=C(Nc1ccc(Oc2ccnc3cc(-c4ccc(CN5CCC[C@H]5C(=O)NCCO)cn4)sc23)c(F)c1)NC1CC1 [Compound 485, (S)-1-((6-(7-(4-(3-cyclopropylureido)-2-fluorophenoxy)thieno[3,2-b]pyridin-2-yl)pyridin-3-yl)methyl)-N-(2-hydroxyethyl)pyrrolidine-2-carboxamide]
> 7.30 | CCCNC(=O)NC1CCN(Cc2ccc(-c3cc4nccc(Oc5ccc(NC(=O)NC6CC6)cc5F)c4s3)nc2)CC1 [Compound 354]
> 7.30 | NC(=O)CCN1CCN(Cc2ccc(-c3cc4nccc(Oc5ccc(NC(=O)NC6CC6)cc5F)c4s3)nc2)CC1 [Compound 82, 3-(4-((6-(7-(4-(3-cyclopropylureido)-2-fIuorophenoxy)-thieno[3,2-b]pyridin-2-yl)pyridin-3-yl)methyl)piperazin-l-yl)propanamide]

More lines, now with the values behind:

Compound | pIC50
COCCN(Cc1ccc(-c2cc3nccc(Oc4ccc(NC(=O)CC5CC5)cc4F)c3s2)nc1)C(C)=O [Compound 42, 2-cyclopropyl-N-(3-fluoro-4-(2-(5-((N-(2-methoxyethyl)-acetamido)methyl)pyridin-2-yl)thieno[3,2-b]-pyridin-7-yloxy)phenyl)-acetamide] | 7.00 to 7.30
COCCN(Cc1ccc(-c2cc3nccc(Oc4ccc(NC(=S)NC5CC5)cc4F)c3s2)nc1)C(=O)CO [Compound 505, N-((6-(7-(4-(3-cyclopropylthioureido)-2-fluorophenoxy)thieno[3,2-b]pyridin-2-yl)pyridin-3-yl)methyl)-2-hydroxy-N-(2-methoxyethyl)acetamide] | 7.00 to 7.30
CCOC(=O)C1CCCN(C(=O)c2ccc(-c3cc4nccc(Oc5ccc(NC(=O)NC6CC6)cc5F)c4s3)nc2)C1 (stereo not shown) [Compound 237, ethyl 1-(6-(7-(4-(3-cyclopropylureido)-2-fluorophenoxy)thieno-[3,2-b]pyridin-2-yl)nicotinoyl)piperidine-3-carboxylate] | > 7.30
O=C(CO)N[C@H]1CCN(Cc2ccc(-c3cc4nccc(Oc5ccc(NC(=O)NC6CC6)cc5F)c4s3)nc2)C1 [Compound 497, (S)-N-(1-((6-(7-(4-(3-cyclopropylureido)-2-fluorophenoxy)thieno[3,2-b]pyridin-2-yl)-pyridin-3-yl)methyl)pyrrolidin-3-yl)-2-hydroxyacetamide] | > 7.30
CCNC(=O)N(CCOC)CCn1cnc(-c2cc3nccc(Oc4ccc(NC(=O)NC5CC5)cc4F)c3s2)c1 [Compound 256, N-(2-(4-(7-(4-(3-cyclopropylureido)-2-fluorophenoxy)thieno[3,2-b]-pyridin-2-yl)-1H-imidazol-1-yl)ethyl)-N-(1-ethyl)-N-[3-(2-methoxyethyl)]urea] | > 7.30
O=C(Nc1ccc(Oc2ccnc3cc(-c4ccc(CN5CC(O)CC5=O)cn4)sc23)c(F)c1)NC1CC1 (racemic) [Compound 111, (±)-1-cyclopropyl-3-(3-fluoro-4-(2-(5-((4-hydroxy-2-oxopyrrolidin-1-yl)methyl)pyridin-2-yl)thieno[3,2-b]pyridin-7-yloxy)phenyl)urea] | > 7.30
O=C(CO)NC1CCN(Cc2ccc(-c3cc4nccc(Oc5ccc(NC(=O)NC6CC6)cc5F)c4s3)nc2)CC1 [Compound 346] | > 7.30
COCCNCc1ccc(-c2cc3nccc(Oc4ccc(NC(=O)CC5CC5)cc4F)c3s2)nc1 [Compound 13, 2-cyclopropyl-N-(3-fluoro-4-(2-(5-((2-methoxyethylamino)methyl)pyridin-2-yl)-thieno[3,2-b]pyridin-7-yloxy)phenyl)acetamide] | 7.00 to 7.30
CC(C)N1CCN(Cc2ccc(-c3cc4nccc(Oc5ccc(NC(=O)NC6CC6)cc5F)c4s3)nc2)CC1 [Compound 54-E, 1-cyclopropyl-3-(3-fluoro-4-(2-(5-((4-isopropylpiperazin-1-yl)methyl)pyridin-2-yl)thieno[3,2-b]pyridin-7-yloxy)phenyl)urea] | > 7.30
CCNC(=O)N(CCOC)Cc1ccc(-c2cc3nccc(Oc4ccc(NC(=O)NC5CC5)cc4F)c3s2)cc1 [Compound 195, 1-(4-(7-(4-cyclopropylaminocarbonylamino-2-fluorophenoxy)thieno[3,2-b]pyridin-2-yl)benzyl)-3-ethyl-1-(2-methoxyethyl)urea] | > 7.30
CC(=O)OCC(=O)N1CCN(Cc2ccc(-c3cc4nccc(Oc5ccc(NC(=O)NC6CC6)cc5F)c4s3)nc2)C[C@@H]1C [Compound 528, (S)-2-(4-((6-(7-(4-(3-cyclopropylureido)-2-fluorophenoxy)thieno[3,2-b]pyridin-2-yl)pyridin-3-yl)methyl)-2-methylpiperazin-1-yl)-2-oxoethyl acetate] | > 7.30
CN(C)C(=O)c1cc2nccc(Oc3ccc(NC(=O)NC4CC4)cc3F)c2s1 [Compound 442] | > 7.30
O=C(Nc1ccc(Oc2ccnc3cc(-c4cn(CCN5CCCC5=O)cn4)sc23)c(F)c1)NC1CC1 [Compound 267, 1-cyclopropyl-3-(3-fluoro-4-(2-(1-(2-(2-oxopyrrolidin-1-yl)ethyl)-1H-imidazol-4-yl)thieno[3,2-b]pyridin-7-yloxy)phenyl)urea] | > 7.30
CC(C)(C)OC(=O)NC1CCN(C(=O)Cn2cc(-c3cc4nccc(Oc5ccc(NC(=O)NC6CC6)cc5F)c4s3)nn2)CC1 [Compound 387] | > 7.30
CC(C)(C)OC(=O)N[C@H]1CCN(Cc2ccc(-c3cc4nccc(Oc5ccc(NC(=O)NC6CC6)cc5F)c4s3)nc2)C1 [Compound 480, (S)-tert-butyl 1-((6-(7-(4-(3-cyclopropylureido)-2-fluorophenoxy)thieno[3,2-b]pyridin-2-yl)pyridin-3-yl)methyl)pyrrolidin-3-ylcarbamate] | > 7.30

From patent US8906852B2 (MethylGene Inc., priority 2010, dated 2014)
